Earlier results in patent US8372797B2, “Treatment of erectile dysfunction by stem cell therapy” (Creative Medical Health, Inc., priority 2006, dated 2013).

How the values were obtained:
[1] = tested on: hypercholesterolemic rabbits; conditions: two 2.5 microgram doses separated by a 3-week interval into corporal tissue
diabetic rats = conditions: intracavernous, gelatin microbeads
[2] = tested on: hypercholesterolemic rabbits; conditions: systemic administration
[3] = tested on: model of rat diabetes associated ED; conditions: exogenous administration

Substance	corporal relaxation and ability to generate NO [1]	erectile function (diabetic rats)	histological changes in the corpus cavernosum [2]	erectile function [3]
bFGF: basic fibroblast growth factor, a known inducer of angiogenesis	increase corporal relaxation in response to chemical stimuli	protection of erectile function from diabetes mediated onset	favorable histological changes	
superoxide dismutase				increase erectile function
